Test results taken from patent US20230183259A1, “Crystal Form Of Thiofuran Pyridazine Compound, Preparation Method Therefor And Application Thereof” (ZHEJIANG MEDICINE CO., LTD. XINCHANG PHARMACEUTICAL FACTORY, priority 2020, published 2023).

Legend:
[1] = acceleration test (stability); format: physicochemical; details: 40° C.±2° C., relative humidity 75%±5%
Experimental: (§1) Stability tests were performed on the samples of Examples 1, 2, 3, 4 and 5. […] Please refer to the results of the acceleration test (40° C.±2° C., relative humidity 75%±5%) of Table 1 and the results of the long-term stability test (25° C.±2° C., relative humidity 60%±10%) of Table 2.

long-term stability test = format: physicochemical; details: 25° C.±2° C., relative humidity 60%±10%
Experimental: as §1

Substance: (S)-2-(4-fluorophenyl)-4-(piperidine-3-aminomethyl)thieno[2,3-d]pyridazine-7-carboxamide hydrochloride [Example 110601-3]
- (%) Impurity B (%) ([1]; 0 month): 0.00%
- Crystal form ([1]; 0 month): unchanged
- appearance ([1]; 0 month): yellow crystalline powder
- Enantiomer (%) ([1]; 0 month, hydrochloride): 0.09%
- Impurity A (%) ([1]; 0 month, hydrochloride): 0.28%
- Impurity C (%) ([1]; 0 month, hydrochloride): 0.02%
- Loss on drying (%) ([1]; 0 month, hydrochloride): 7.2%
- Single largest impurity (%) ([1]; 0 month, hydrochloride): 0.01%
- Total relevant substances (%) ([1]; 0 month, hydrochloride): 0.37%
- content(%) ([1]; 0 month, hydrochloride): 99.6%
- Crystal form ([1]; 1 month): unchanged
- Impurity C (%) ([1]; 1 month): 0.02%
- appearance ([1]; 1 month): yellow crystalline powder
- (%) Impurity B (%) ([1]; 1 month, hydrochloride): 0.03%
- Enantiomer (%) ([1]; 1 month, hydrochloride): 0.11%
- Impurity A (%) ([1]; 1 month, hydrochloride): 0.25%
- Loss on drying (%) ([1]; 1 month, hydrochloride): 7.2%
- Single largest impurity (%) ([1]; 1 month, hydrochloride): 0.02%
- Total relevant substances (%) ([1]; 1 month, hydrochloride): 0.39%
- content(%) ([1]; 1 month, hydrochloride): 100.0%
- Crystal form ([1]; 2 months): unchanged
- appearance ([1]; 2 months): yellow crystalline powder
- (%) Impurity B (%) ([1]; 2 months, hydrochloride): 0.03%
- Enantiomer (%) ([1]; 2 months, hydrochloride): 0.1%
- Impurity A (%) ([1]; 2 months, hydrochloride): 0.26%
- Impurity C (%) ([1]; 2 months, hydrochloride): 0.02%
- Loss on drying (%) ([1]; 2 months, hydrochloride): 7.2%
- Single largest impurity (%) ([1]; 2 months, hydrochloride): 0.03%
- Total relevant substances (%) ([1]; 2 months, hydrochloride): 0.38%
- content(%) ([1]; 2 months, hydrochloride): 98.2%
- (%) Impurity B (%) ([1]; 3 months): 0.00%
- Crystal form ([1]; 3 months): unchanged
- Impurity C (%) ([1]; 3 months): 0.02%
- appearance ([1]; 3 months): yellow crystalline powder
- Enantiomer (%) ([1]; 3 months, hydrochloride): 0.09%
- Impurity A (%) ([1]; 3 months, hydrochloride): 0.25%
- Loss on drying (%) ([1]; 3 months, hydrochloride): 7.2%
- Single largest impurity (%) ([1]; 3 months, hydrochloride): 0.02%
- Total relevant substances (%) ([1]; 3 months, hydrochloride): 0.33%
- content(%) ([1]; 3 months, hydrochloride): 99.9%
- (%) Impurity B (%) ([1]; 6 months): 0.00%
- Crystal form ([1]; 6 months): unchanged
- Impurity C (%) ([1]; 6 months): 0.02%
- appearance ([1]; 6 months): yellow crystalline powder
- Enantiomer (%) ([1]; 6 months, hydrochloride): 0.08%
- Impurity A (%) ([1]; 6 months, hydrochloride): 0.21%
- Loss on drying (%) ([1]; 6 months, hydrochloride): 7.1%
- Single largest impurity (%) ([1]; 6 months, hydrochloride): 0.02%
- Total relevant substances (%) ([1]; 6 months, hydrochloride): 0.28%
- content(%) ([1]; 6 months, hydrochloride): 99.7%
- Crystal form (long-term stability test; 0 month): unchanged
- ImpurityB(%) (long-term stability test; 0 month): 0.00%
- Content (calculated by dried product )(%) (long-term stability test; 0 month, hydrochloride): 99.6%
- Enantiomers (%) (long-term stability test; 0 month, hydrochloride): 0.09%
- ImpurityA(%) (long-term stability test; 0 month, hydrochloride): 0.28%
- ImpurityC(%) (long-term stability test; 0 month, hydrochloride): 0.02%
- Loss on drying (%) (long-term stability test; 0 month, hydrochloride): 7.2%
- Single largest impurity (%) (long-term stability test; 0 month, hydrochloride): 0.01%
- Total relevant substances (%) (long-term stability test; 0 month, hydrochloride): 0.37%
- appearance (long-term stability test; 0 month, hydrochloride): yellow crystalline powder
- Crystal form (long-term stability test; 3 months): unchanged
- ImpurityB(%) (long-term stability test; 3 months): 0.00%
- ImpurityC(%) (long-term stability test; 3 months): 0.02%
- Content (calculated by dried product )(%) (long-term stability test; 3 months, hydrochloride): 100.2%
- Enantiomers (%) (long-term stability test; 3 months, hydrochloride): 0.09%
- ImpurityA(%) (long-term stability test; 3 months, hydrochloride): 0.26%
- Loss on drying (%) (long-term stability test; 3 months, hydrochloride): 7.1%
- Single largest impurity (%) (long-term stability test; 3 months, hydrochloride): 0.03%
- Total relevant substances (%) (long-term stability test; 3 months, hydrochloride): 0.35%
- appearance (long-term stability test; 3 months, hydrochloride): yellow crystalline powder
- Crystal form (long-term stability test; 6 months): unchanged
- ImpurityB(%) (long-term stability test; 6 months): 0.00%
- Content (calculated by dried product )(%) (long-term stability test; 6 months, hydrochloride): 99.6%
- Enantiomers (%) (long-term stability test; 6 months, hydrochloride): 0.08%
- ImpurityA(%) (long-term stability test; 6 months, hydrochloride): 0.25%
- ImpurityC(%) (long-term stability test; 6 months, hydrochloride): 0.02%
- Loss on drying (%) (long-term stability test; 6 months, hydrochloride): 7.2%
- Single largest impurity (%) (long-term stability test; 6 months, hydrochloride): 0.03%
- Total relevant substances (%) (long-term stability test; 6 months, hydrochloride): 0.35%
- appearance (long-term stability test; 6 months, hydrochloride): yellow crystalline powder
- Crystal form (long-term stability test; 9 months): unchanged
- ImpurityC(%) (long-term stability test; 9 months): 0.02%
- Content (calculated by dried product )(%) (long-term stability test; 9 months, hydrochloride): 99.5%
- Enantiomers (%) (long-term stability test; 9 months, hydrochloride): 0.09%
- ImpurityA(%) (long-term stability test; 9 months, hydrochloride): 0.25%
- ImpurityB(%) (long-term stability test; 9 months, hydrochloride): 0.01%
- Loss on drying (%) (long-term stability test; 9 months, hydrochloride): 7.2%
- Single largest impurity (%) (long-term stability test; 9 months, hydrochloride): 0.02%
- Total relevant substances (%) (long-term stability test; 9 months, hydrochloride): 0.38%
- appearance (long-term stability test; 9 months, hydrochloride): yellow crystalline powder
- Crystal form (long-term stability test; 12 months): unchanged
- ImpurityB(%) (long-term stability test; 12 months): 0.01%
- Single largest impurity (%) (long-term stability test; 12 months): 0.02%
- Content (calculated by dried product )(%) (long-term stability test; 12 months, hydrochloride): 99.9%
- Enantiomers (%) (long-term stability test; 12 months, hydrochloride): 0.08%
- ImpurityA(%) (long-term stability test; 12 months, hydrochloride): 0.25%
- ImpurityC(%) (long-term stability test; 12 months, hydrochloride): 0.03%
- Loss on drying (%) (long-term stability test; 12 months, hydrochloride): 7.3%
- Total relevant substances (%) (long-term stability test; 12 months, hydrochloride): 0.35%
- appearance (long-term stability test; 12 months, hydrochloride): yellow crystalline powder
- Crystal form (long-term stability test; 18 months): unchanged
- ImpurityB(%) (long-term stability test; 18 months): 0.00%
- Single largest impurity (%) (long-term stability test; 18 months): 0.02%
- Content (calculated by dried product )(%) (long-term stability test; 18 months, hydrochloride): 101.1%
- Enantiomers (%) (long-term stability test; 18 months, hydrochloride): 0.06%
- ImpurityA(%) (long-term stability test; 18 months, hydrochloride): 0.25%
- ImpurityC(%) (long-term stability test; 18 months, hydrochloride): 0.03%
- Loss on drying (%) (long-term stability test; 18 months, hydrochloride): 7.1%
- Total relevant substances (%) (long-term stability test; 18 months, hydrochloride): 0.31%
- appearance (long-term stability test; 18 months, hydrochloride): yellow crystalline powder
- Crystal form (long-term stability test; 24 months): unchanged
- Enantiomers (%) (long-term stability test; 24 months): 0.08%
- ImpurityB(%) (long-term stability test; 24 months): 0.00%
- ImpurityC(%) (long-term stability test; 24 months): 0.02%
- Single largest impurity (%) (long-term stability test; 24 months): 0.02%
- Content (calculated by dried product )(%) (long-term stability test; 24 months, hydrochloride): 98.6%
- ImpurityA(%) (long-term stability test; 24 months, hydrochloride): 0.25%
- Loss on drying (%) (long-term stability test; 24 months, hydrochloride): 7.3%
- Total relevant substances (%) (long-term stability test; 24 months, hydrochloride): 0.34%
- appearance (long-term stability test; 24 months, hydrochloride): yellow crystalline powder
- Crystal form (long-term stability test; 36 months): unchanged
- ImpurityC(%) (long-term stability test; 36 months): 0.02%
- Single largest impurity (%) (long-term stability test; 36 months): 0.02%
- Content (calculated by dried product )(%) (long-term stability test; 36 months, hydrochloride): 99.7%
- Enantiomers (%) (long-term stability test; 36 months, hydrochloride): 0.06%
- ImpurityA(%) (long-term stability test; 36 months, hydrochloride): 0.26%
- ImpurityB(%) (long-term stability test; 36 months, hydrochloride): 0.01%
- Loss on drying (%) (long-term stability test; 36 months, hydrochloride): 7.0%
- Total relevant substances (%) (long-term stability test; 36 months, hydrochloride): 0.36%
- appearance (long-term stability test; 36 months, hydrochloride): yellow crystalline powder
